Assay results taken from EP3791884A1, “COMBINATION OF HEPARIN AND MAGNESIUM SALT FOR THE TREATMENT OF VIRAL INFECTIONS” (Bunz, Oskar, priority 2019, dated 2021).
Like-named read-outs stand apart in the source and are kept apart here.

Experiments:
HAdV5 [1] = tested on: HAdV5
[2] = tested on: human adenovirus type 5 (HAdV5); details: solely MgCl2, with 25 µmol MgCl2, HAdV5 1000 vpc, CHO-K1 cells
H9N2 = details: MDCKII cells, H9N2 MOI 0,1, Heparin 5 I.U. per well and/or MgCl2 5 µmol per well
HAdV5 [3] = details: HeLa cells, HAdV5 1000 vpc, heparin 5 I.U. per well and/or MgCl2 5 µmol per well 4 hrs prior to infection, 26 hrs post infection
[4] = Zinc test series: cytotoxic effect (not described in the Examples); format: cell-based
Description: (§1) The inventors have also used zinc for some test series (not described in the Examples section). […] Furthermore, the antiviral effect of zinc was not apparent for all adenoviruses tested. An antiviral effect of zinc was detectable only for adenovirus type 5.

Adenovirus type 10 = assay: Zinc test series: antiviral effect, adenovirus type 10; format: cell-based
Description: as §1

adenovirus type 5 = assay: Zinc test series: antiviral effect, adenovirus type 5; format: cell-based
Description: as §1

[5] = tested on: several types of adenovirus; details: cited from earlier work
[6] = in vivo; cited from earlier work

In the case of `[Cl-].[Cl-].[Mg+2]` [MgCl2, magnesium chloride], the luciferase expression levels (HAdV5 [1]; only MgCl2 and virus, compared to untreated cells solely infected with virus) is reported as 7%, the luciferase expression levels (HAdV5 [1]; only applying virus and MgCl2) is reported as “about 32%” and the luciferase expression levels (HAdV10; only MgCl2 and virus) is reported as 12%. The luciferase expression levels (HAdV10; only applying virus and MgCl2) was 10%, the luciferase values [2] was 40% and the “infected cells (immunofluorescence)” value (H9N2) was “slight decrease”. For the same compound, the “median fluorescent intensity (MFI)” value (HAdV5 [3]) was 41%.

For `[Zn]` [zinc], the cytotoxic effect [4] was “very strong cytotoxic effect”, the “infection efficiencies in cells treated with zinc” value (Adenovirus type 10) was “increased infection efficiencies” and the antiviral effect (adenovirus type 5) was “detectable”.

For `NC(=O)c1ncn([C@@H]2O[C@H](CO)[C@@H](O)[C@H]2O)n1` [Ribavirin], the “antiviral activity against HAdV species C” value ([5]; in vitro) is given as “antiviral activity” and the “antiviral activity against species A, B, D” value ([5]; in vitro) is given as “limited activation”.

For `Nc1nc(O)c2ncn(COC(CO)CO)c2n1` [Ganciclovir], the efficiency against adenovirus [5] is listed as “not against adenovirus” and the “half-maximal effective concentration (EC50)” value ([5]; in vitro, relative to plasma) is listed as “three times higher than in plasma”.

For `Nc1ccn(C[C@@H](CO)OCP(=O)(O)O)c(=O)n1` [Cidofovir], the toxicity [6] is listed as “nephrotoxic”.
